The results in this text go back to patent publication US9540392B2, “Thienopyrimidines” (BAYER PHARMA AKTIENGESELLSCHAFT, priority 2012, dated 2017).

Assay [1] deals with T1, human full-length MKNK1 (Homo sapiens, UniProt Q9BUB5, T385D).
T1 construct: GST (N); purchased Carna Biosciences 02-145; host or cells: insect cells (baculovirus expression system)
Briefly: MKNK1 kinase assay (TR-FRET). It is filed as biochemical. The settings on record: 10 μM ATP. An excerpt:
MKNK1-inhibitory activity of compounds of the present invention was quantified employing the MKNK1 TR-FRET assay as described in the following paragraphs.
A recombinant fusion protein of Glutathione-S-Transferase (GST, N-terminally) and human full-length MKNK1 (amino acids 1-424 and T344D of accession number BAA 19885.1), expressed in insect cells using baculovirus expression system and purified via glutathione sepharose affinity chromatography, was purchased from Carna Biosciences (product no 02-145) and used as enzyme. As substrate for the kinase reaction the biotinylated peptide biotin-Ahx-IKKRKLTRRKSLKG (C-terminus in amide form) was used which can be purchased e.g. form the company Biosyntan (Berlin-Buch, Germany).
For the assay 50 nL of a 100 fold concentrated solution of the test compound in DMSO was pipetted into a black low volume 384 well microtiter plate (Greiner Bio-One, Frickenhausen, Germany), 2 μL of a solution of MKNK1 in aqueous assay buffer [50 mM HEPES pH 7.5, 5 mM MgCl2, 1.0 mM dithiothreitol, 0.005% (v/v) Nonidet-P40 (Sigma)] was added and the mixture was incubated for 15 min at 22° C. to allow pre-binding of the test compounds to the enzyme before the start of the kinase reaction. Then the kinase reaction was started by the addition of 3 μL of a solution of adenosine-tri-phosphate (ATP, 16.7 μM=>final conc. in the 5 μL assay volume is 10 μM) and substrate (0.1 μM=>final conc. in the 5 μL assay volume is 0.06 μM) in assay buffer and the resulting mixture was incubated for a reaction time of 45 min at 22° C. The concentration of MKNK1 was adjusted depending of the activity of the enzyme lot and was chosen appropriate to have the assay in the linear range, typical concentrations were in the range of 0.05 μg/mL. The reaction was stopped by the addition of 5 μL of a solution of TR-FRET detection reagents (5 nM streptavidine-XL665 [Cisbio Bioassays, Codolet, France] and 1 nM anti-ribosomal protein […] (pSer236)-antibody from Invitrogen [#44921G] and 1 nM LANCE EU-W1024 Labeled ProteinG [Perkin-Elmer, product no. AD0071]) in an aqueous EDTA-solution (100 mM EDTA, 0.1% (w/v) bovine serum albumin in 50 mM HEPES pH 7.5).
The resulting mixture was incubated for 1 h at 22° C. to allow the formation of complex between the phosphorylated biotinylated peptide and the detection reagents. Subsequently the amount of phosphorylated substrate was evaluated by measurement of the resonance energy transfer from the Eu-chelate to the streptavidine-XL. Therefore, the fluorescence emissions at 620 nm and 665 nm after excitation at 350 nm were measured in a TR-FRET reader, e.g. a Rubystar (BMG Labtechnologies, Offenburg, Germany) or a Viewlux (Perkin-Elmer). […]
A general note: Time-resolved FRET reads energy transfer from a long-lived donor to a nearby acceptor.

Assay [2] concerns the target T1, human full-length MKNK1. Briefly: MKNK1 kinase high ATP assay (TR-FRET). As to conditions: 2 mM ATP, after preincubation with MKNK1; read-out: MKNK1 IC50 (MKNK1 high ATP). It is filed as biochemical. The essentials: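 Compound was preincubated 15 min at 22° C. with MKNK1 in 50 mM HEPES pH 7.5, 5 mM MgCl2, 1.0 mM DTT, then the reaction ran 30 min at 22° C. with 2 mM ATP and 0.06 μM biotinylated peptide (final).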

Assay [3] deals with eIF4E Ser209 phosphorylation in A549 cells. Briefly: AlphaScreen SureFire eIF4E Ser209 phosphorylation assay in A549 cells with 20% FCS stimulation. It is filed as cell-based. The settings on record: Homo sapiens, read-out: pEIF4e (IC50 of the EIF4e phosphorylation). An excerpt: The AlphaScreen SureFire eIF4E Ser209 phoshorylation assay is used to measure the phosphorylation of endogenous eIF4E in cellular lysates. The AlphaScreen SureFire technology allows the detection of phosphorylated proteins in cellular lysates. In this assay, sandwich antibody complexes, which are only formed in the presence of the analyte (p-eIF4E Ser209), are captured by AlphaScreen donor and acceptor beads, bringing them into close proximity. The excitation of the donor bead provokes the release of singlet oxygen molecules that triggers a cascade of energy transfer in the Acceptor beads, resulting in the emission of light at 520-620 nm.
Surefire EIF4e Alphascreen in A549 cells with 20% FCS stimulation
For the assay the AlphaScreen SureFire p-eIF4E Ser209 10K Assay Kit and the AlphaScreen ProteinA Kit (for 10K assay points) both from Perkin Elmer were used. On day one 50.000 A549 cells were plated in a 96-well plate in 100 μL per well in growth medium (DMEM/Hams' F12 with stable Glutamin, 10% FCS) and incubated at 37° C. After attachment of the cells, medium was changed to starving medium (DMEM, 0.1% FCS, without Glucose, with Glutamin, supplemented with 5 g/L Maltose). On day two, test compounds were serially diluted in 50 μL starving medium with a final DMSO concentration of 1% and were added to A549 cells in test plates at a final concentration range from as high 10 μM to as low 10 nM depending on the activities of the tested compounds. Treated cells were incubated at 37° C. for 2 h. 37 ul FCS was added to the wells (=final FCS concentration 20%) for 20 min. Then medium was removed and cells were lysed by adding 50 μL lysis buffer. Plates were then agitated on a plate shaker for 10 min. After 10 min lysis time, 4 μL of the lysate is transferred to a 384 well plate (Proxiplate from Perkin Elmer) and 5 μL Reaction Buffer plus Activation Buffer mix containing AlphaScreen Acceptor beads was added. Plates were sealed with TopSeal-A adhesive film, gently agitated on a plate shaker for 2 hours at room temperature. Afterwards 2 μL Dilution buffer with AlphaScreen Donor beads were added under subdued light and plates were sealed again with TopSeal-A adhesive film and covered with foil. Incubation takes place for further 2 h gently agitation at room temperature. Plates were then measured in an EnVision reader (Perkin Elmer) with the AlphaScreen program. Each data point (compound dilution) was measured as triplicate.
The IC50 values were determined by means of a 4-parameter fit using the company's own software.
(In general: Bead proximity is the source of the signal in Alpha formats.)

T1 sequence (Q9BUB5 1-424 isoform Q9BUB5-2 T344D): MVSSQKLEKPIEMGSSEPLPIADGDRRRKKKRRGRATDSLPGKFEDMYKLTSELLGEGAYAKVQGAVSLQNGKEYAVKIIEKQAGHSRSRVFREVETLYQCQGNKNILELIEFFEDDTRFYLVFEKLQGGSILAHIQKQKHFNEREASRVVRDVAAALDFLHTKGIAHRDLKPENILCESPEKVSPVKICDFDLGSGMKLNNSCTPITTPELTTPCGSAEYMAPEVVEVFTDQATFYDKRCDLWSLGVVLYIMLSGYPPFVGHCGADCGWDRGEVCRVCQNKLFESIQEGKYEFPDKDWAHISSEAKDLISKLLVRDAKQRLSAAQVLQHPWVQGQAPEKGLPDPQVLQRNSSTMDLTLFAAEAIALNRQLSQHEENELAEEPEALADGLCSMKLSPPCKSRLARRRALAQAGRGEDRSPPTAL

`CCOC(=O)C1CCc2c(sc3ncnc(Nc4ccc5[nH]ncc5c4)c23)C1` (stereo not drawn) [Example 1, Ethyl 4-(1H-indazol-5-ylamino)-5,6,7,8-tetrahydro[1]benzothieno[2,3-d]pyrimidine-7-carboxylate]: the IC50 was 5 nM in assay [1] and 16 nM in assay [2].
The matching figures for `O=C(O)C1CCc2c(sc3ncnc(Nc4ccc5[nH]ncc5c4)c23)C1` (stereo not drawn) [Example 2, 4-(1H-Indazol-5-ylamino)-5,6,7,8-tetrahydro[1]benzothieno[2,3-d]pyrimidine-7-carboxylic acid]: 8 nM and 26 nM.
The matching figures for `CS(=O)(=O)CCCNC(=O)C1CCc2c(sc3ncnc(Nc4ccc5[nH]ncc5c4)c23)C1` (stereo not drawn) [Example 4, 4-(1H-Indazol-5-ylamino)-N-[3-(methylsulfonyl)propyl]-5,6,7,8-tetrahydro[1]benzothieno[2,3-d]pyrimidine-7-carboxamide]: 8 nM and 9 nM.
In the case of `CCOC(=O)C1CCc2c(sc3ncnc(Nc4cc5cn[nH]c5cc4OC)c23)C1` (stereo not drawn) [Example 56, Ethyl 4-[(6-methoxy-1H-indazol-5-yl)amino]-5,6,7,8-tetrahydro[1]benzothieno[2,3-d]pyrimidine-7-carboxylate], the IC50 was determined as 165 nM in assay [3], 2 nM in assay [1] and 2 nM in assay [2].

For orientation: IC50 means the point on the concentration scale where inhibition reaches its midpoint.
